# According to US20090306159A1, “Inhibition of Intermediate-Conductance Calcium Activated Potassium Channels in the Treatment and/or Prevention of Atherosclerosis” (The Regents of the University, priority 2005, published 2009):
# Key:
# [1] = tested on: human coronary artery smooth muscle cells (HCSMCs); assay: Cell proliferation assay (cell count with hemocytometer) in PDGF-stimulated HCSMCs; type: cell-based; conditions: for cell number of HCSMCs: 48 hours, n=7
# Procedure: (§1) Cell proliferation assays: Cell proliferation assays were performed as previously reported. Briefly, quiescent HCSMCs seeded at a density of 4×10^4/well in 6-well plates were stimulated by 20 ng/mL PDGF in the presence or absence of 10^−7 M TRAM-34, a selective IKCa blocker. Forty eight hours after stimulation, the number of cells was counted with a hemocytometer (MARIENFELD, Lauda-Konigshofen Germany). In another set of experiments, a BrdU cell proliferation assay was also performed with quiescent cells in 96-well plates at a density of 1×10^4/well according to the manufacturer's instructions (Colorimetric Cell Proliferation ELISA, Roche, Penzberg Germany). In this study, BrdU (10^−5 M in medium) was applied 24 hours prior to the measurements.
# [2] = tested on: human coronary artery smooth muscle cells (HCSMCs); assay: BrdU cell proliferation assay (DNA synthesis) in HCSMCs; type: cell-based
# Procedure: as §1
# c-fos = assay: Western blot of c-fos expression in HCSMCs; type: cell-based, human; conditions: PDGF + TRAM-34
# Description: Western blot analysis: Total cell lysates or membrane fractions were harvested and protein samples separated on an electrophoresis gel by SDS-PAGE and then transferred to a PVDF membrane. The gels were stained in Coomassie blue to confirm equal protein loading. Membranes were blocked with 10% nonfat dried milk, blotted with primary antibodies (BKCa α-subunit [Affinity BioReagents], c-fos [Santa Cruz, Inc.] and IKCa) and subsequently probed with a horseradish peroxidase-labeled donkey anti-rabbit antibody (1:5,000˜10,000 [Santa Cruz, Inc.]). The bound antibody was detected by chemiluminescence (ECL Plus, Amersham). The polyclonal primary antibody against human and mouse IKCa was obtained from sera of rabbits immunized using oligopeptides with following amino acids sequences; H-LNASYRSIGALNQVRC-NH2 (S4-5 of human and mouse IKCa).
# [3] = tested on: human coronary artery smooth muscle cells (HCSMCs); assay: Transwell cell migration assay in HCSMCs; type: cell-based
# Procedure: Cell migration assay: A Cell migration assay was carried out with the Transwell system (Corning, Acton, Mass.) as previously reported. Briefly, cells (3×10^5 cells/mL) were seeded onto the upper chamber of Transwells, and the lower chamber was filled with serum-free medium containing 20 ng/ml PDGF. TRAM-34 (10^−8˜10^−7 M) was added to both chambers. After 8-hour stimulation, migrated cells were fixed and stained with the Diff-Quick Stain (IMEB Inc. Chicago, Ill.) and counted under a microscope.
# ApoE knockout mice = assay: Development of atherosclerosis in ApoE knockout mice on high-cholesterol diet (long-term IKCa1 blockade); type: in vivo, mouse; conditions: ApoE KO mice, long-term TRAM-34
# Procedure: Mouse treatment: C57BL/6J male mice (wild type [WT] n=11 and ApoE deficient type [EKO] n=38, The Jackson Laboratory) were used. EKO mice were weaned at 4 weeks of age onto a high-cholesterol diet (1.3% cholesterol; TD 96121, Harian/Teklad) and treated with daily subcutaneous injection of TRAM-34 (120 mg/kg/day) or vehicle (peanut oil) for 12 weeks. Littermate war mice were used as the control group in the experiments. Mice were provided diet and water ad libitum and maintained on a 12-hour light/dark cycle. All animal experiments were conducted according to the Guidelines for Animal Experiments at Medical College of Wisconsin.
# Histological analysis of atherosclerosis in mouse aortas: Isolation of aortas and quantification of atherosclerosis were performed as previously described. Briefly, aortas (from aortic arch to iliac bifurcation) were opened longitudinally, pinned onto a silicon-coated dish, fixed with 4% paraformaldehyde, and stained in 1.0% (v/w) Sudan III solution (The Science Company, Denver, Colo.). Images were acquired using a digital camera (C-755, Minolta), and the surface area of atherosclerotic lesions was measured as the percentage of total area of the opened aorta using imaging software, MetaMorph (Universal Imaging Corp).
# [4] = Body weight, heart weight, blood pressure, heart rate, plasma cholesterol and deaths in treated mice; type: in vivo, mouse
# Procedure: Mouse treatment: C57BL/6J male mice (wild type [WT] n=11 and ApoE deficient type [EKO] n=38, The Jackson Laboratory) were used. […] Littermate war mice were used as the control group in the experiments. Mice were provided diet and water ad libitum and maintained on a 12-hour light/dark cycle. All animal experiments were conducted according to the Guidelines for Animal Experiments at Medical College of Wisconsin.
# Hemodynamic analysis of mice: At 16 weeks of age, mice were anesthetized, and right femoral arteries were cannulated for continuous measurement of arterial pressure and heart rate (pressure transducer; Bioresearch Center, Nagoya, Japan) and recorded continuously by computer for 30 min.
# Plasma lipid analysis: Plasma was obtained by centrifugation of blood and stored at −80° C. until each assay was performed. Plasma cholesterol levels were analyzed by General Medical Laboratories (Madison, Wis.).
# BKCa [5] = target: BKCa (Homo sapiens, UniProt Q12791); assay: Videomicroscopy: vasodilation of human coronary arterioles to BKCa opener; conditions: endothelium-denuded human vessels, 3×10^-6 M, n=3
# BKCa (Homo sapiens, UniProt Q12791), sequence (Q12791 whole entry): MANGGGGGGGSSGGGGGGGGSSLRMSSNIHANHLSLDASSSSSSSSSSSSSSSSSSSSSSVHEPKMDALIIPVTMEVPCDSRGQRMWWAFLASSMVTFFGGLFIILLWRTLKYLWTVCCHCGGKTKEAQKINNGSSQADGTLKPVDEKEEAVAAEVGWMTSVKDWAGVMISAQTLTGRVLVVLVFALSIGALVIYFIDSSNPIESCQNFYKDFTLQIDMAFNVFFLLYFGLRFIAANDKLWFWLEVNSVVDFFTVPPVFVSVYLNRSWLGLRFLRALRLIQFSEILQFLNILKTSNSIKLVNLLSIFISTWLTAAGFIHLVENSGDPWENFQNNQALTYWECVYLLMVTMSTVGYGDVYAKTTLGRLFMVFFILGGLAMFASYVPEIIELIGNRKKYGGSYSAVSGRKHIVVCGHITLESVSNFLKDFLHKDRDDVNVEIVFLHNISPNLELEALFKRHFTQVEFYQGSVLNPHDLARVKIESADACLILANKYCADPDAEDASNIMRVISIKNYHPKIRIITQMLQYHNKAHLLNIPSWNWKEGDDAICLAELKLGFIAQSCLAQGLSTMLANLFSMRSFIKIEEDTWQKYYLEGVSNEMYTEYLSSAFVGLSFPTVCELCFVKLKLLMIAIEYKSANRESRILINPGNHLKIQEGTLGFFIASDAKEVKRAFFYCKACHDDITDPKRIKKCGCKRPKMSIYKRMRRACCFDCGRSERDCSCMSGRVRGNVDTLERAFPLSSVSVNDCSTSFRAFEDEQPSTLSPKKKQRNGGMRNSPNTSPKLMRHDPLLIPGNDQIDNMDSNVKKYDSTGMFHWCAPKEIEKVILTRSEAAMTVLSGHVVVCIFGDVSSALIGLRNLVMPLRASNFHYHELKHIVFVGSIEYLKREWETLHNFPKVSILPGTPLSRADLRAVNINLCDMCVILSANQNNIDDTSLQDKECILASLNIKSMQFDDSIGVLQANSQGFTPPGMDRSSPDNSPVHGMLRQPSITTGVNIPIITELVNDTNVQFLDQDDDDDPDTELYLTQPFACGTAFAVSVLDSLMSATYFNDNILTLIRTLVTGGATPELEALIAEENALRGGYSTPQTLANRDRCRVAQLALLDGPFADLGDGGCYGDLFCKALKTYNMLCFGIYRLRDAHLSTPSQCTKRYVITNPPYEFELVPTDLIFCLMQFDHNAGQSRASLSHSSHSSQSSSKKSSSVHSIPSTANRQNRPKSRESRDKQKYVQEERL
# BKCa (Homo sapiens, UniProt Q12791), sequence (Q16558 whole entry partner): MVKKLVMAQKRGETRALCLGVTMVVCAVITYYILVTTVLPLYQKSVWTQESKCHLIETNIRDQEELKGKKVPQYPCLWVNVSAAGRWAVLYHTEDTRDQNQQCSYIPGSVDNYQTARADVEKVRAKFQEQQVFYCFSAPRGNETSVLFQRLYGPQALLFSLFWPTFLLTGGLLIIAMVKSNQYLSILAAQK
# Procedure: (§2) Videomicroscopy: The preparation for videomicroscopy has been previously described. Vasomotor and endothelial function was confirmed by measuring constriction to 50 mM KCl and dilation to acetylcholine (ACh, 10^−4 M, mouse vessels pressurized at 40 mmHg) or to bradykinin (10^−7 mol/L, human vessels at 60 mmHg). Vessels were preconstricted with U46619 (10^−9˜10^−8 M for mouse vessels) or ACh (10^−8˜5×10^−7 M for human vessels) to adjust tone to a level between 30% to 50% of passive diameter. […] In some experiments, endothelial cells (ECs) were denuded.
# (§3) Statistical Analysis: All data are expressed as mean±SE. […] Percent dilation was calculated as the percent change from the preconstricted diameter to the passive diameter in Ca^2+-free Krebs containing 10^−4 M papaverine. Percent constriction or basal tone was determined by calculating the percent reduction in the passive diameter. To compare dose-response relationships between treatment groups, a two-way ANOVA supported by a Bonferroni post hoc test was used. Statistical comparisons of maximal percent vasodilation and basal tone under different treatments were performed by paired Student's t test. […] Statistical significance was defined as a value of P<0.05.
# BKCa [6] = target: BKCa (Mus musculus, UniProt Q08460); assay: Videomicroscopy: vasodilation of mouse carotid artery segments to BKCa opener; conditions: endothelium-denuded carotid artery segments
# BKCa (Mus musculus, UniProt Q08460), sequence (Q08460 whole entry): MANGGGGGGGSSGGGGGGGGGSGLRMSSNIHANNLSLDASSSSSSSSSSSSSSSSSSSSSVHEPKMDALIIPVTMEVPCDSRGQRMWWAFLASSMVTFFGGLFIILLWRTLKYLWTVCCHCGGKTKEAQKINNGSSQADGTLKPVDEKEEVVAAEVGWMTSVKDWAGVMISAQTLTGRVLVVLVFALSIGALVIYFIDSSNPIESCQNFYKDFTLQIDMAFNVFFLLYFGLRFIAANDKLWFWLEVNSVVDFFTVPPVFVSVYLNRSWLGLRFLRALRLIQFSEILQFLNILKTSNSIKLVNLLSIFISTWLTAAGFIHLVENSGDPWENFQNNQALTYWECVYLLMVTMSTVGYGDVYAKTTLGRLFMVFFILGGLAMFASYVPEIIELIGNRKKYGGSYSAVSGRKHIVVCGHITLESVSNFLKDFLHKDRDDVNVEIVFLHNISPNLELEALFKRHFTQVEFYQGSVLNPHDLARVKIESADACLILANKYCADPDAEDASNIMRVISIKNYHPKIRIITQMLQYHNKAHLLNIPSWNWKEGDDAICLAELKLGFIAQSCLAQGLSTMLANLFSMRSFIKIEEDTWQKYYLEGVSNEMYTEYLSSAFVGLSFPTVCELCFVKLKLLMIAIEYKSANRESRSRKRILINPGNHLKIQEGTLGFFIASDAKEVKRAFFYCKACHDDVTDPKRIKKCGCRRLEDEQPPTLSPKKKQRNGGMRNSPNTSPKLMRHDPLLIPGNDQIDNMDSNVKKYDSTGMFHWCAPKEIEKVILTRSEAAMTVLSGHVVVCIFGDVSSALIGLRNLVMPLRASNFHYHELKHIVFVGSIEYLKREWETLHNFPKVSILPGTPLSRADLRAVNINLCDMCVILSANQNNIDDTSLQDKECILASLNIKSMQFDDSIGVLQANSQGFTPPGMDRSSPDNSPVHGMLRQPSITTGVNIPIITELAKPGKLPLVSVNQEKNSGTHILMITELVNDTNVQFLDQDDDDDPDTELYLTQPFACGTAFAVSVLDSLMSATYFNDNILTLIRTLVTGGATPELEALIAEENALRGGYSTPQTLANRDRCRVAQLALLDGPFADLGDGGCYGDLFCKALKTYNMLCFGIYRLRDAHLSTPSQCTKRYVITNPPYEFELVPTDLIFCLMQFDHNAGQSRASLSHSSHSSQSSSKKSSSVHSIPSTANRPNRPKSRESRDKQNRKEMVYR
# BKCa (Mus musculus, UniProt Q08460), sequence (Q8CAE3 whole entry partner): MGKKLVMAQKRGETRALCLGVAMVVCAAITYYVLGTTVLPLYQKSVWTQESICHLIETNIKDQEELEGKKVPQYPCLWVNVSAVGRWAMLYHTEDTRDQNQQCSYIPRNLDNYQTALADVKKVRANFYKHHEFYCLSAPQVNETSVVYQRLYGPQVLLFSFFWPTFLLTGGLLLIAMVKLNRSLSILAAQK
# Procedure: as §2, §3
# IKCa mRNA = assay: Real-time RT-PCR of IKCa mRNA in HCSMCs; type: cell-based, human; conditions: PDGF 20 ng/ml, at 6 h, n=5
# Description: (sense) and [NT] (antisense); for [NT] (sense) and [NT] (antisense).
# [7] = among the groups (WT, ApoE KO vehicle, ApoE KO TRAM-34)
# [8] = long-term treatment, anesthetized mice
compound,measurement,setting,value
"COc1ccc(Cl)cc1C(=O)NCCc1ccc(S(=O)(=O)NC(=O)NC2CCCCC2)cc1 [Glibenclamide, reference compound]",effect on PDGF-induced HCSMC proliferation,"[1]; with PDGF, data not shown, n=4",had no effect
"Clc1ccccc1C(c1ccccc1)(c1ccccc1)n1cccn1 [TRAM-34, 1-[(2-chlorophenyl)diphenylmethyl]-1H-pyrazole]",cell number of HCSMCs,[1]; PDGF + TRAM-34 at 10^-7 M,1.1±0.1 fold of control
same,cell viability,"[1]; PDGF+TRAM-34 or TRAM-34 alone, HCSMCs",did not affect cell viability
same,effect on HCSMC proliferation,[1]; in the absence of PDGF,had no effect
same,DNA synthesis (BrdU incorporation),"[2]; PDGF + TRAM-34, n=26",2.2±0.2 fold of control
same,effect on DNA synthesis,"[2]; TRAM alone, no PDGF, n=6",had no effect
same,PDGF-induced up-regulation of c-fos protein,c-fos,markedly reduced
same,HCSMC migration,"[3]; PDGF + TRAM-34, 8-hour stimulation, n=4",2392 fold of control
same,accumulation of macrophages in the plaques,ApoE knockout mice,decreased
same,nitric oxide-mediated component of endothelium-dependent vasodilation,ApoE knockout mice,restored
same,plasma level of MCP-1,ApoE knockout mice,reduced
same,plasma level of TNF-alpha,ApoE knockout mice,reduced
same,deaths during treatment,"[4]; 14-week treatment, unknown reasons, same in vehicle group",One mouse
same,plasma cholesterol levels,"[4]; ApoE KO mice, TRAM-34 vs vehicle",no significant difference
same,body weight,[4]; [7],no significant differences
same,heart weight,[4]; [7],no significant differences
same,blood pressure,[4]; [8],unaltered
same,heart rate,[4]; [8],unaltered
C=C[C@@]1(C)C=C2CC[C@@H]3[C@](C)(CCC[C@@]3(C)C(=O)O)[C@H]2CC1 [pimaric acid],vasodilation,BKCa [5]; CAD subjects,31±3%
same,vasodilation,BKCa [5]; non-CAD subjects,56±6%
same,% max. dilation,BKCa [6]; ApoE KO mice,9±3%
same,% max. dilation,"BKCa [6]; WT mice, 10^-5 M",55±10%
platelet-derived growth factor-BB [PDGF],cell number of HCSMCs,[1]; PDGF alone (20 ng/mL),1.6±0.1 fold of control
same,DNA synthesis (BrdU incorporation),"[2]; PDGF alone, n=26",2.8±0.3 fold of control
same,HCSMC migration,"[3]; PDGF alone (20 ng/ml), 8-hour stimulation, n=10",32±4 fold of control
same,"IKCa mRNA expression, max response",IKCa mRNA,4.2±1.0 fold
